The source of these data is patent US9289584B2, “Remotely controlled drug delivery systems” (THE UNIVERSITY OF BRITISH COLUMBIA, priority 2010, dated 2016).

Converted amounts (≈) assume the structure as drawn. Read-outs that look alike come from different tables or passages of the source.

Data set [1] can be described thus: Saturation solubility of DTX in the solution-filled reservoir. The class given is physicochemical. The conditions noted are these: 40 mg/ml BSA solution in PBS inside the device reservoir, aqueous buffer, thermodynamic from solid; solid DTX dissolved by BSA solution in PBS inside the reservoir, 37° C. The protocol:
Step 8: The device was exposed to a 40 mg/ml bovine serum albumin (BSA, Sigma-Aldrich Canada Ltd., Ontario, Canada) solution in phosphate buffered saline (PBS) and incubated at 37° C. to increase the wet ability of the magnetic PDMS membrane and thus filling of the drug reservoir with water. The hydrophilic aperture walls results in surface-tension driven flow through the aperture and gradual filling of the reservoir with solution.

Data set [2] is described as follows: HPLC test of drug released after 8 months inside the device. Type of data set: physicochemical. The following applies: HPLC after 8 months encapsulated inside the device. The procedure: The released drug from the device was tested with HPLC after 8 months that was encapsulated inside the device.
The subject of the next data set is PC3 cells. As to the kind of experiment: PC3 cell viability (MTS assay). The class given is cell-based. The conditions noted are these: for cell viability equilibrated: PC3 cells, 2 days incubation. The procedure:
(§1) A prototype device was actuated at the desired number of actuations in 1% BSA solution. The released DTX was extracted in 1 ml DCM, as described previously. This mixture was dried down under nitrogen flow at 40° C. and was then reconstituted in either HUVEC and PC3 cell media to the original volume of 4 ml. Alternatively, fresh solutions of free DTX were prepared in various concentrations (2-250 nM) in acetonitrile, dried down under nitrogen flow at 40° C., and reconstituted in cell media.
PC3 and HUVEC cells were seeded in 96 well plates in their respective media at a concentration of 1500 cells per well. The cells were allowed to equilibrate for 2 days at which time they became approximately 50% confluent and were ready for drug incubation. Cells were incubated for 2 days at 37° C. with 200 μl of either freshly prepared solutions of DTX at various concentrations or with the drug solution released from the device under various number of device actuations. Cell viability was determined using a CellTiter 96 AQueous Non-Radioactive Cell Proliferation Assay (MTS assay, Promega Corporation, Madison, Wis.) and quantified by reading the absorbance at 492 nm minus the absorbance at 610 nm using a spectrometric plate reader. In both experiments, the values presented are for the averages of six replicas for each condition.
The biological activity of the DTX released from a device was investigated. This was achieved by incubating cells with the released drug in cell culture media and measuring the drug induced inhibition of proliferation in comparison to the inhibition caused by freshly made drug solutions. The device used for this study had been fabricated and left in BSA solution for two months (with an open aperture) prior to the experiment. The amount of DTX release during this period was estimated to be about 4.5 μg based on measured DTX diffusion rate. It was then actuated under a 255 mT magnetic field for different numbers of actuation cycles. The amounts of released drug were then experimentally interpolated from “number of actuations” to “drug concentrations”, using FIG. 4-a. […]
On the technique in general: Tetrazolium dyes change colour on reduction, which living cells bring about.

The test system of another data set is HUVECs. Kind of data set: HUVEC viability (MTS assay). Type of data set: cell-based. The following applies: 2 days incubation. The protocol: as §1
PC3 and HUVEC cells were seeded in 96 well plates in their respective media at a concentration of 1500 cells per well. The cells were allowed to equilibrate for 2 days at which time they became approximately 50% confluent and were ready for drug incubation. […] Cell viability was determined using a CellTiter 96 AQueous Non-Radioactive Cell Proliferation Assay (MTS assay, Promega Corporation, Madison, Wis.) and quantified by reading the absorbance at 492 nm minus the absorbance at 610 nm using a spectrometric plate reader. […]
The biological activity of the DTX released from a device was investigated. […] The amount of DTX release during this period was estimated to be about 4.5 μg based on measured DTX diffusion rate. […]

The conditions of data set [3]: cited from earlier work.
Setting [4] is: drug released from the device (255 mT, device kept two months in BSA solution).

As for `CC(=O)O[C@@]12CO[C@@H]1C[C@H](O)[C@@]1(C)C(=O)[C@H](O)C3=C(C)[C@@H](OC(=O)[C@H](O)[C@@H](NC(=O)OC(C)(C)C)c4ccccc4)C[C@@](O)([C@@H](OC(=O)c4ccccc4)[C@H]21)C3(C)C` [DTX, docetaxel], in data set [1], the solubility is roughly 5 µg/mL (≈ 0.00619 mM). In addition, the drug remained intact entry in data set [2] is listed as “over 95%”. The cell viability equilibrated entry is reported as “about 34%” in the data set with PC3 cells (setting [4]), “about 34%” in the data set on PC3 cells (fresh free drug), “about 24%” in the data set with HUVECs (setting [4]) and “about 24%” in the data set on HUVECs (fresh free drug). Also, the “stability of DTX inside the PDMS MEMS device” value in the data set on PC3 cells (after two months, judged by antiproliferative effect) is on record as “does not degrade”.
On to `CC(C)(C)NC[C@H](O)COc1nsnc1N1CCOCC1` [timolol], for which the solubility in data set [3] was 2500 µg/mL (≈ 7.9 mM).
As for `CC(C)OC(=O)CCC/C=C\C[C@@H]1[C@@H](CC[C@@H](O)CCc2ccccc2)[C@H](O)C[C@@H]1O` [latanoprost], in data set [3], the solubility was 50000 µg/mL (≈ 116 mM).

The term solubility denotes the dissolved amount per volume that the medium holds.
